# Data reported in ChEMBL document CHEMBL4270587, “Difuran-substituted quinoxalines as a novel class of PI3Kα H1047R mutant inhibitors: Synthesis, biological evaluation and structure-activity relationship” (Eur J Med Chem, 2018).
# What was measured:
# [1] = target: PI3-kinase p110-alpha/p85-alpha (Homo sapiens, UniProt P42336, H1047R); assay: Inhibition of recombinant full length PI3K p85alpha/p110alpha H1047R mutant (unknown origin) expressed in baculovirus infected sf9 cells using PIP2 as substrate preincubated for 10 mins followed by ATP addition and measured after 45 mins by HTRF assay
# MCF7 = assay: cells; settings: Homo sapiens, MCF7, 72 h
# Description: Antiproliferative activity against human MCF7 cells after 72 hrs by CCK8 assay
# HCT-116 = assay: cells; settings: Homo sapiens, HCT-116, 72 h
# Sequence of PI3-kinase p110-alpha/p85-alpha (P42336 whole entry H1047R, looked up): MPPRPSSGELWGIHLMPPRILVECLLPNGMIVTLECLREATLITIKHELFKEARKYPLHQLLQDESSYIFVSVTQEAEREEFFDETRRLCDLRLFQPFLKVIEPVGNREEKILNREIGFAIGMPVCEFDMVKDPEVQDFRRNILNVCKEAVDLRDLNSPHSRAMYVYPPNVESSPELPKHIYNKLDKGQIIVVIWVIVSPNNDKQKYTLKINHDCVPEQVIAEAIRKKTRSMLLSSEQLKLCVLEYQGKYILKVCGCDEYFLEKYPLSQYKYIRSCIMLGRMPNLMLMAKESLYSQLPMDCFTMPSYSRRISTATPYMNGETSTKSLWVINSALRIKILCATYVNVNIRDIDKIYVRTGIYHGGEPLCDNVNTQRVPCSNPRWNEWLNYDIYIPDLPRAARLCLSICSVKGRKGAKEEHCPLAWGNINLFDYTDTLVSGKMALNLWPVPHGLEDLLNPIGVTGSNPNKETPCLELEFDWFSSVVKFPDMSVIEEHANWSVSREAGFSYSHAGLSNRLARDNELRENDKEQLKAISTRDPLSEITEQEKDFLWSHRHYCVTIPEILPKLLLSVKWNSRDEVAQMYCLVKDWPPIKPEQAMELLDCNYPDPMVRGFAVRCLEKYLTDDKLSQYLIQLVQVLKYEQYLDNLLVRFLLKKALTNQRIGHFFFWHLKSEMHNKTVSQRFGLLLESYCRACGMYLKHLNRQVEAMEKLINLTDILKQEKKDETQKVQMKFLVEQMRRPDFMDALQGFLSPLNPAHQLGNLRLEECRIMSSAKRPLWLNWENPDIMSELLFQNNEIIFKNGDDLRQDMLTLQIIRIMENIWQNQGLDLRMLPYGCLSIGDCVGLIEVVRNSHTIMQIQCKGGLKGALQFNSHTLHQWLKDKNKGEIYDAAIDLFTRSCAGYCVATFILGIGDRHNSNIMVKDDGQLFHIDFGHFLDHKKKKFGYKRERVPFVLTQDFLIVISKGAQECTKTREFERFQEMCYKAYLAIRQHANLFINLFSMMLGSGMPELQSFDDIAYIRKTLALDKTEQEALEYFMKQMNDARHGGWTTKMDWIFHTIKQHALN
SMILES,EC50 [1] [µM],IC50 (MCF7) [µM],IC50 (HCT-116) [µM]
Fc1ccc(-c2cc3nc(-c4ccco4)c(-c4ccco4)nc3cc2Br)c(F)c1,3.2,27.9,16.6
Clc1ccccc1-c1cc2nc(-c3ccco3)c(-c3ccco3)nc2cc1Br,> 100,> 50,> 50
Fc1cccc(-c2cc3nc(-c4ccco4)c(-c4ccco4)nc3cc2Br)c1,2.9,19.6,43.1
Brc1cc2nc(-c3ccco3)c(-c3ccco3)nc2cc1-c1cncnc1,13.5,> 50,> 50
Clc1ccc2nc(-c3ccco3)c(-c3ccco3)nc2c1Cl,> 100,> 50,> 50
Fc1ccc2nc(-c3ccco3)c(-c3ccco3)nc2c1,> 100,> 50,> 50
Clc1ccc2nc(-c3ccco3)c(-c3ccco3)nc2c1,18.1,> 50,> 50
Brc1ccccc1-c1cc2nc(-c3ccco3)c(-c3ccco3)nc2cc1Br,> 100,> 50,> 50
Brc1cc2nc(-c3ccco3)c(-c3ccco3)nc2cc1Br,39.3,> 50,> 50
c1coc(-c2nc3ccc(-c4cc5ccccc5o4)cc3nc2-c2ccco2)c1,> 100,> 50,> 50
c1ccc(-c2nc3ccccc3nc2-c2ccccc2)cc1,> 100,> 50,> 50
FC(F)(F)c1ccc2nc(-c3ccco3)c(-c3ccco3)nc2c1,> 100,> 50,> 50
COc1ccccc1-c1ccc2nc(-c3ccco3)c(-c3ccco3)nc2c1,87.3,> 50,> 50
FC(F)(F)c1ccc(-c2cc3nc(-c4ccco4)c(-c4ccco4)nc3cc2Br)cc1,0.516,25.2,14.9
c1ccc2nc(N3CCOCC3)c(N3CCOCC3)nc2c1,> 100,> 50,> 50
c1csc(-c2nc3ccccc3nc2-c2cccs2)c1,> 100,> 50,> 50
COc1ccccc1-c1cc2nc(-c3ccco3)c(-c3ccco3)nc2cc1Br,> 100,> 50,> 50
Fc1ccc(-c2cc3nc(-c4ccco4)c(-c4ccco4)nc3cc2Br)cc1,1.9,35.1,38.1
Oc1ccccc1-c1ccc2nc(-c3ccco3)c(-c3ccco3)nc2c1,43.5,> 50,> 50
COc1ccc(-c2cc3nc(-c4ccco4)c(-c4ccco4)nc3cc2Br)cc1,> 100,> 50,> 50
Brc1cc2nc(-c3ccco3)c(-c3ccco3)nc2cc1-c1cc2ccccc2o1,> 100,> 50,> 50
COc1cc(OC)cc(-c2cc3nc(-c4ccco4)c(-c4ccco4)nc3cc2Br)c1,> 100,> 50,> 50
Oc1ccccc1-c1cc2nc(-c3ccco3)c(-c3ccco3)nc2cc1Br,> 100,> 50,> 50
Cc1ccc2nc(-c3ccco3)c(-c3ccco3)nc2c1,> 100,> 50,> 50
c1coc(-c2nc3ccc(-c4ccncc4)cc3nc2-c2ccco2)c1,> 100,> 50,> 50
Fc1cccc(-c2cc3nc(-c4ccco4)c(-c4ccco4)nc3cc2Br)c1F,7.3,> 50,> 50
Brc1cc2nc(-c3ccco3)c(-c3ccco3)nc2cc1-c1ccccc1,20.5,> 50,> 50
Fc1ccccc1-c1ccc2nc(-c3ccco3)c(-c3ccco3)nc2c1,12.7,> 50,39.7
c1coc(-c2nc3ccc(-c4cc5ccccc5s4)cc3nc2-c2ccco2)c1,> 100,> 50,> 50
